The text below walks through data of US8013006B2.

Molecules are shown by their SMILES. Like-named read-outs stand apart in the source and are kept apart here.

This test deals with HCV replicon. Put plainly: microbe, parasite or virus in culture. Type of test: cell-based. To be noted: read-out: Replicon IC5Os. For orientation: A replicon is a self-replicating genome or part of one, used to study replication in cells.
Setting [1] is: Replicon IC50 values are determined by firefly luciferase signal, bicistronic replicon, 2 days.

With `CCn1c(-c2ccc(NS(C)(=O)=O)cc2)c(C#N)c2ccc(C(F)(F)F)cc21` [Compound 365], the IC50 (Hepatitis C virus, 48 h) is less than 0.5 µM. `CCn1c(-c2ccc(NS(C)(=O)=O)cc2)c(C#N)c2ccccc21` [Compound 371]: the IC50 under setting [1] was more than 2 µM.

In the case of `CCOC(=O)Nc1ccc(-c2c(C#N)c3ccccc3n2CC)cc1` [Compound 372], under setting [1], the IC50 lay in the range of 0.5 to 2 µM. The same measure, in the same setting: in the case of `CCn1c(-c2cccc(S(N)(=O)=O)c2)c(C#N)c2ccc(OC)cc21` [Compound 373] it was more than 2 µM; in that of `CCCNS(=O)(=O)c1ccc(-c2c(C#N)c3ccc(OC)cc3n2CC)cc1` [Compound 374], more than 2 µM; in that of `CCn1c(-c2cccc(N)c2)c(C#N)c2ccc(O)cc21` [Compound 376], more than 2 µM. On the same count and under the same terms, with `CCn1c(-c2ccc(C(=O)N3CCCNCC3)cc2)c(C#N)c2ccc(OC)cc21` [Compound 377] the figure was more than 2 µM. `CCn1c(-c2ccc(C(=O)Nc3ccc(Cl)c(Cl)c3)cc2)c(C#N)c2ccc(OC)cc21` [Compound 380]: the IC50 under setting [1] was more than 2 µM. `CCn1c(-c2ccc(C(=O)Nc3ccc(C)cc3)cc2)c(C#N)c2ccc(OC)cc21` [Compound 381]: the IC50 under setting [1] was more than 2 µM. With `CCn1c(-c2ccc(C(=O)Nc3ccc(Cl)cc3)cc2)c(C#N)c2ccc(OC)cc21` [Compound 382], the IC50 under setting [1] fell in the range of 0.5 to 2 µM. The same measure, in the same setting: with `CCn1c(-c2cccc(NC(=O)C(C)C)c2)c(C#N)c2ccc(OC)cc21` [Compound 383] the figure was more than 2 µM. On the same count and under the same terms, with `CCn1c(-c2ccc(C(=O)NC(C)C)cc2)c(C#N)c2ccc(OC)cc21` [Compound 385] the figure was 0.5 to 2 µM; with `CCn1c(-c2ccc(C(=O)NC3CC3)cc2)c(C#N)c2ccc(OC)cc21` [Compound 386], more than 2 µM; with `CCn1c(-c2ccc(C(=O)N3CCC3)cc2)c(C#N)c2ccc(OC)cc21` [Compound 387], more than 2 µM. On to `CCn1c(-c2ccc(C(=O)NCCO)cc2)c(C#N)c2ccc(OC)cc21` [Compound 388], for which the IC50 under setting [1] was more than 2 µM.

On to `CCn1c(-c2ccc(C(=O)NCCCN3CCOCC3)cc2)c(C#N)c2ccc(OC)cc21` [Compound 389], for which, under setting [1], the IC50 is more than 2 µM.

Turning to `CCn1c(-c2ccc(C(=O)Nc3ccccc3)cc2)c(C#N)c2ccc(OC)cc21` [Compound 390], the IC50 under setting [1] is more than 2 µM. In the case of `CCn1c(-c2ccc(C(=O)Nc3ccc(OC)c(OC)c3)cc2)c(C#N)c2ccc(OC)cc21` [Compound 392], under setting [1], the IC50 was more than 2 µM. As for `CCn1c(-c2ccc(N)cc2)c(C#N)c2cc(Cl)ccc21` [Compound 393], the IC50 under setting [1] is 0.5 to 2 µM.

As for `CCn1c(-c2ccc(NS(C)(=O)=O)cc2)c(C#N)c2cc(Cl)ccc21` [Compound 394], the IC50 under setting [1] was less than 0.5 µM. Same read-out and setting: with `CCn1c(-c2cccc(NC(=O)NCCCl)c2)c(C#N)c2ccc(OC)cc21` [Compound 395] the figure was 0.5 to 2 µM. Turning to `CCCNC(=O)Nc1cccc(-c2c(C#N)c3ccc(OC)cc3n2CC)c1` [Compound 396], the IC50 (Hepatitis C virus, 48 h) is less than 0.5 µM. Consider `CCn1c(-c2cccc(NC(=O)NC(C)C)c2)c(C#N)c2ccc(OC)cc21` [Compound 397], for which the IC50 (Hepatitis C virus, 48 h) is less than 0.5 µM.

Take `CCCCNC(=O)Nc1cccc(-c2c(C#N)c3ccc(OC)cc3n2CC)c1` [Compound 398]: under “Hepatitis C virus, 48 h”, the IC50 is less than 0.5 µM. Regarding `C=CCNC(=O)Nc1cccc(-c2c(C#N)c3ccc(OC)cc3n2CC)c1` [Compound 399], the IC50 (Hepatitis C virus, 48 h) was less than 0.5 µM. Take `CCn1c(-c2cccc(NC(=O)NCCCCl)c2)c(C#N)c2ccc(OC)cc21` [Compound 400]: the IC50 under setting [1] was in the range of 0.5 to 2 µM. As for `CCNC(=O)Nc1cccc(-c2c(C#N)c3ccc(OC)cc3n2CC)c1` [Compound 401], the IC50 (Hepatitis C virus, 48 h) was less than 0.5 µM. `CCn1c(-c2cccc(NC(=O)NCCc3ccccc3)c2)c(C#N)c2ccc(OC)cc21` [Compound 402]: the IC50 under setting [1] lay within 0.5 to 2 µM. Consider `CCn1c(-c2cccc(NC(=O)Nc3ccc(C(C)C)cc3)c2)c(C#N)c2ccc(OC)cc21` [Compound 403], for which, for the setting “Hepatitis C virus, 48 h”, the IC50 fell in the range of 0.5 to 2 µM. As to `CCn1c(-c2cccc(NC(=O)Nc3ccc(C)cc3)c2)c(C#N)c2ccc(OC)cc21` [Compound 404], the IC50 under setting [1] was more than 2 µM. On to `CCn1c(-c2cccc(NC(=O)Nc3ccccc3C)c2)c(C#N)c2ccc(OC)cc21` [Compound 405], for which the IC50 (Hepatitis C virus, 48 h) lay in the range of 0.5 to 2 µM. Same read-out and setting: in the case of `CCn1c(-c2cccc(NC(=O)Nc3ccc(Oc4ccccc4)cc3)c2)c(C#N)c2ccc(OC)cc21` [Compound 406] it was less than 0.5 µM. Regarding `CCOC(=O)c1ccc(NC(=O)Nc2cccc(-c3c(C#N)c4ccc(OC)cc4n3CC)c2)cc1` [Compound 407], under setting [1], the IC50 lay within 0.5 to 2 µM. As for `COc1ccc2c(C#N)c(-c3ccc(NS(C)(=O)=O)cc3)n(CC(C)C)c2c1` [Compound 409], under setting [1], the IC50 fell in the range of 0.5 to 2 µM. Still for that read-out and setting: in the case of `CCOc1ccc2cc(-c3ccc(NS(C)(=O)=O)cc3)n(CC)c2c1` [Compound 410] it was 0.5 to 2 µM; in that of `CCOc1ccc2cc(-c3ccc(NS(=O)(=O)CC)cc3)n(CC)c2c1` [Compound 411], 0.5 to 2 µM. On to `CCCn1c(-c2ccc(NS(C)(=O)=O)cc2)cc2ccc(OCC)cc21` [Compound 412], for which the IC50 under setting [1] was more than 2 µM.

As to `CCOc1ccc2c(C#N)c(-c3ccc(NS(=O)(=O)CC)cc3)n(C)c2c1` [Compound 414], the IC50 under setting [1] lay within 0.5 to 2 µM.

`CCCn1c(-c2ccc(NS(C)(=O)=O)cc2)c(C#N)c2ccc(OCC)cc21` [Compound 417]: under setting [1], the IC50 was less than 0.5 µM. As to `CCOc1ccc2c(C#N)c(-c3ccc(NS(C)(=O)=O)cc3)n(C(C)C)c2c1` [Compound 419], under setting [1], the IC50 fell in the range of 0.5 to 2 µM. Same read-out and setting: with `CCn1c(-c2ccc(NC(=O)CCl)cc2)c(C#N)c2ccc(C(F)(F)F)cc21` [Compound 421] the figure was more than 2 µM; with `CCn1c(-c2ccc(NC(=O)c3ccccc3)cc2)c(C#N)c2ccc(C(F)(F)F)cc21` [Compound 423], more than 2 µM. For `CCn1c(-c2ccc(NC(=O)N3CCOCC3)cc2)c(C#N)c2ccc(C(F)(F)F)cc21` [Compound 424], the IC50 under setting [1] is more than 2 µM. The same measure, in the same setting: with `CCn1c(-c2ccc(NC(=O)C3CC3)cc2)c(C#N)c2ccc(C(F)(F)F)cc21` [Compound 425] the figure was 0.5 to 2 µM. Still for that read-out and setting: with `CCn1c(-c2ccc3ccccc3c2)c(C#N)c2ccc(OC)cc21` [Compound 426] the figure was 0.5 to 2 µM; with `CCn1c(-c2ccc3c(ccn3C)c2)c(C#N)c2ccc(OC)cc21` [Compound 427], 0.5 to 2 µM; with `CCn1c(-c2cccc(N)c2)c(C#N)c2cc(Cl)ccc21` [Compound 431], more than 2 µM. Same read-out and setting: in the case of `CCNC(=O)c1ccc(-c2c(C#N)c3ccccc3n2CC)cc1` [Compound 432] it was more than 2 µM; in that of `CCn1c(-c2ccc(C(=O)NC3CC3)cc2)c(C#N)c2ccccc21` [Compound 433], more than 2 µM; in that of `CCOC(=O)Nc1cccc(-c2c(C#N)c3cc(Cl)ccc3n2CC)c1` [Compound 434], more than 2 µM. For `CCn1c(-c2ccc(S(N)(=O)=O)cc2)c(C#N)c2cc(F)ccc21` [Compound 437], the IC50 under setting [1] was more than 2 µM. For `CCn1c(-c2ccc(S(=O)(=O)NC)cc2)c(C#N)c2cc(F)ccc21` [Compound 438], under setting [1], the IC50 was more than 2 µM.

For the molecule `CCn1c(-c2ccc(NS(C)(=O)=O)cc2)c(C#N)c2cc(F)ccc21` [Compound 439], the IC50 under setting [1] lay in the range of 0.5 to 2 µM. Turning to `CCn1c(-c2ccc(NS(=O)(=O)CC)cc2)c(C#N)c2cc(F)ccc21` [Compound 440], the IC50 under setting [1] is 0.5 to 2 µM.

Turning to `CCOC(=O)Nc1cccc(-c2c(C#N)c3ccc(OCCCn4cncn4)cc3n2CC)c1` [Compound 441], the IC50 under setting [1] lay within 0.5 to 2 µM. `CCn1c(-c2ccc(NC(=O)NCCCCl)cc2)c(C#N)c2ccc(OC)cc21` [Compound 443]: the IC50 under setting [1] is more than 2 µM. Same read-out and setting: in the case of `CCn1c(-c2ccc(NC(=O)NCCc3ccccc3)cc2)c(C#N)c2ccc(OC)cc21` [Compound 444] it was more than 2 µM.

With `CCn1c(-c2ccc(NC(=O)Nc3ccc(C(C)C)cc3)cc2)c(C#N)c2ccc(OC)cc21` [Compound 445], the IC50 (Hepatitis C virus, 48 h) was 0.5 to 2 µM.

Regarding `CCn1c(-c2ccc(NC(=O)Nc3ccc(Oc4ccccc4)cc3)cc2)c(C#N)c2ccc(OC)cc21` [Compound 446], the IC50 under setting [1] is more than 2 µM. Consider `CCOC(=O)Nc1cccc(-c2c(C#N)c3ccc(OCCCCl)cc3n2CC)c1` [Compound 447], for which the IC50 (Hepatitis C virus, 48 h) is less than 0.5 µM.

For `CCn1c(-c2ccc(NS(=O)(=O)c3cn(C)cn3)cc2)c(C#N)c2ccc(OC)cc21` [Compound 448], the IC50 under setting [1] is more than 2 µM. Take `CCn1c(-c2ccc(NS(=O)(=O)c3ccc(N4CCOCC4)nc3)cc2)c(C#N)c2ccc(OC)cc21` [Compound 449]: under setting [1], the IC50 was more than 2 µM. Still for that read-out and setting: with `CCOC(=O)Nc1ccc(-c2c(C#N)c3ccc(C(F)(F)F)cc3n2CC)cc1` [Compound 450] the figure was 0.5 to 2 µM; with `CCn1c(-c2ccc(NS(=O)(=O)c3cccs3)cc2)c(C#N)c2ccc(OC)cc21` [Compound 451], more than 2 µM; with `CCn1c(-c2ccc(NS(=O)(=O)c3cccc4cccnc34)cc2)c(C#N)c2ccc(OC)cc21` [Compound 452], more than 2 µM.

On to `CCCOC(=O)Nc1ccc(-c2c(C#N)c3ccc(C(F)(F)F)cc3n2CC)cc1` [Compound 453], for which, under setting [1], the IC50 lay within 0.5 to 2 µM. In the case of `CCn1c(-c2ccc(NC(=O)OCc3ccccc3)cc2)c(C#N)c2ccc(C(F)(F)F)cc21` [Compound 457], the IC50 under setting [1] was in the range of 0.5 to 2 µM. Regarding `CCn1c(-c2ccc(N)cc2)c(C#N)c2cc(-c3cccc(OC)c3)ccc21` [Compound 459], under setting [1], the IC50 fell in the range of 0.5 to 2 µM.

As to `CCn1c(-c2cccc(N)c2)c(C#N)c2cc(-c3cccc(OC)c3)ccc21` [Compound 460], the IC50 under setting [1] lay in the range of 0.5 to 2 µM. Consider `CCOc1ccc2cc(-c3ccc(NS(=O)(=O)CC)cc3)n(CC(C)C)c2c1` [Compound 465], for which the IC50 under setting [1] is more than 2 µM.

Take `CCOc1ccc2cc(-c3ccc(NS(C)(=O)=O)cc3)n(C3CCC3)c2c1` [Compound 466]: under setting [1], the IC50 lay within 0.5 to 2 µM.

Consider `CCOc1ccc2cc(-c3ccc(NS(=O)(=O)CC)cc3)n(C3CCC3)c2c1` [Compound 467], for which, under setting [1], the IC50 was in the range of 0.5 to 2 µM. Take `CCS(=O)(=O)Nc1ccc(-c2c(C#N)c3ccc(OC)cc3n2C(C)C)cc1` [Compound 468]: the IC50 under setting [1] was less than 0.5 µM.

Consider `CCn1c(-c2ccc(N)cc2)c(C#N)c2ccc(OCCCl)cc21` [Compound 476], for which, under setting [1], the IC50 fell in the range of 0.5 to 2 µM. The same measure, in the same setting: in the case of `CCn1c(-c2ccc(NS(C)(=O)=O)cc2)c(C#N)c2ccc(OCCN3CCCCC3)cc21` [Compound 479] it was more than 2 µM.
